For test [1], the target named is T1, Human Tryptophan 2,3-dioxygenase (TDO) (Homo sapiens, UniProt P48775).
T1 construct: His tag (N); made in house; host or cells: E. coli
Kind of test: Human TDO enzymatic assay (kynurenine level). Type of test: biochemical. The settings on record: 1 nM TDO, 350 μM L-Trp; geometric mean; read-out: TDO GMean: IC50 (μM) (Biochemical Assay). The method, then:
(§1) Human Indoleamine 2,3-dioxygenase (IDO) and Tryptophan 2,3-dioxygenase (TDO) enzymatic assay
(§2) Human IDO or TDO with N-terminal His tag is purified in E. coli. The IDO enzymatic assay is performed using 6 nM IDO and 10 μM L-Trp in the presence of 10 mM ascorbic acid, 5 μM methylene blue, 100 nM catalase and 0.01% Tween 20 in 50 mM sodium phosphate buffer (pH 6.5). 19 μL of above reaction mixture is added to wells of 384 well reaction plate containing […] of various concentrations of test compound or DMSO vehicle and incubated for 20 minutes at room temperature. The TDO enzymatic reaction assay is performed using 1 nM TDO and 350 μM L-Trp in the presence of 10 mM ascorbic acid, 0.4 μM methylene blue, 100 nM catalase and 0.01% Tween 20 in 50 mM sodium phosphate buffer (pH 6.5). 19 μL of above reaction mixture is added to wells of 384 well reaction plate containing 1 μL of various concentrations of test compound or DMSO vehicle and incubated for 70 minutes at room temperature. 16 wells containing all the components of reaction mixture and 5% DMSO serve as high control. 16 well containing all the components except enzyme of reaction mixture and 5% DMSO serves as low control. Both IDO and TDO enzymatic reactions are stopped by addition of […] of 30% TCA and incubated 30 minutes at 50° C. to hydrolyze N-formylkynurenine produced by IDO or TDO to kynurenine. Upon measuring the kynurenine level, the percentage inhibition is calculated at individual concentrations relative to high and low controls. The data is analyzed by using nonlinear regression to generate IC50 values.

The target of test [2] is T2, Human Indoleamine 2,3-dioxygenase (IDO) (Homo sapiens, UniProt P14902).
T2 construct: His tag (N); made in house; host or cells: E. coli
Kind of test: Human IDO enzymatic assay (kynurenine level). Type of test: biochemical. The settings on record: 6 nM IDO, 10 μM L-Trp; geometric mean; read-out: IDO1 GMean: IC50 (μM) (Biochemical Assay). On the procedure: as §1, §2

T1 sequence (P48775 whole entry): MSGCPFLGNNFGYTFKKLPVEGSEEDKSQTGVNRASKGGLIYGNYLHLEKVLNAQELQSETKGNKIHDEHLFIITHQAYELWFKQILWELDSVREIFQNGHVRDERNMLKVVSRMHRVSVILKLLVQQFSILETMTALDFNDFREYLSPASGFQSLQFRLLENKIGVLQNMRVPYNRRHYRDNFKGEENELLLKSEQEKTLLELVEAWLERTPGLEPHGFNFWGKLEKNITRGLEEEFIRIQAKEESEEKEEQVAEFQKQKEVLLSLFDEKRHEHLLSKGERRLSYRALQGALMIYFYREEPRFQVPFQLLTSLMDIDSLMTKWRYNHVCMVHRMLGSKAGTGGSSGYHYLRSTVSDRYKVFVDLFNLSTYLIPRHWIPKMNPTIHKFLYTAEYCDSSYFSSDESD
T2 sequence (P14902 whole entry): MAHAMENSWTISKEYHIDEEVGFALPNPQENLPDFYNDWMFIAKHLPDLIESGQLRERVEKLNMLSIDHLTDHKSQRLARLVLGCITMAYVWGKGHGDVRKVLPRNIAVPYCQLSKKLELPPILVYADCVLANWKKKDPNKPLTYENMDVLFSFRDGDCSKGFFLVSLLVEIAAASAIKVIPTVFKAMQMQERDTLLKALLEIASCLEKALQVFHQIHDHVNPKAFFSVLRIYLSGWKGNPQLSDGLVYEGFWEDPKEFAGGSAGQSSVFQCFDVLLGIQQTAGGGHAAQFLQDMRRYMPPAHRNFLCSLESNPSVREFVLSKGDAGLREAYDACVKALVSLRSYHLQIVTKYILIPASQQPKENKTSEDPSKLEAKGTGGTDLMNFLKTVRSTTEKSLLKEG

For orientation: IC50 means the concentration needed to halve the response being measured. Take `CC(C)(C1CCN(C(=O)CN2CCOCC2)CC1)C(O)c1cc(Cl)cc2[nH]ncc12` (centres unmarked) [Compound P-0609, 1-(4-(1-(6-chloro-1H-indazol-4-yl)-1-hydroxy-2-methylpropan-2-yl)piperidin-1-yl)-2-morpholinoethan-1-one]: the IC50 in test [1] and in test [2] was 0.0001 to 10 µM in each case.
Take `CC(C)(C1CCN(C(=O)CC2CCS(=O)(=O)CC2)CC1)C(O)c1cc(Cl)cc2[nH]ncc12` (centres unmarked) [Compound P-0610, 1-(4-(1-(6-chloro-1H-indazol-4-yl)-1-hydroxy-2-methylpropan-2-yl)piperidin-1-yl)-2-(1,1-dioxidotetrahydro-2H-thiopyran-4-yl)ethan-1-one]: the IC50 in test [1] and in test [2] was 0.0001 to 10 µM throughout.
For the compound `O=C(C1CC1)N1CCC(C(F)(F)[C@H](O)c2c3c(cc4cn[nH]c24)CC3)CC1` [Compound P-0611, (R)-cyclopropyl(4-(2-(5,6-dihydro-1H-cyclobuta[f]indazol-7-yl)-1,1-difluoro-2-hydroxyethyl)piperidin-1-yl)methanone], the IC50 in test [1] and in test [2] was 0.0001 to 10 µM throughout.
Take `CCC(=O)N1CCC(C(F)(F)[C@H](O)c2c3c(cc4cn[nH]c24)CC3)CC1` [Compound P-0612, (R)-1-(4-(2-(5,6-dihydro-1H-cyclobuta[f]indazol-7-yl)-1,1-difluoro-2-hydroxyethyl)piperidin-1-yl) propan-1-one]: the IC50 in test [1] and in test [2] was 0.0001 to 10 µM in each case.
Consider `N#CCC(=O)N1CCC(C(F)(F)[C@H](O)c2c3c(cc4cn[nH]c24)CC3)CC1` [Compound P-0613, (R)-3-(4-(2-(5,6-dihydro-1H-cyclobuta[f]indazol-7-yl)-1,1-difluoro-2-hydroxyethyl)piperidin-1-yl)-3-oxopropanenitrile], for which the IC50 in test [1] and in test [2] was 0.0001 to 10 µM throughout.
As for `COCC(=O)N1CCC(C(F)(F)[C@H](O)c2c3c(cc4cn[nH]c24)CC3)CC1` [Compound P-0614, (R)-1-(4-(2-(5,6-dihydro-1H-cyclobuta[f]indazol-7-yl)-1,1-difluoro-2-hydroxyethyl)piperidin-1-yl)-2-methoxyethan-1-one], the IC50 in test [1] and in test [2] was 0.0001 to 10 µM throughout.
Regarding `O=C(CO)N1CCC(C(F)(F)[C@H](O)c2c3c(cc4cn[nH]c24)CC3)CC1` [Compound P-0615, (R)-1-(4-(2-(5,6-dihydro-1H-cyclobuta[f]indazol-7-yl)-1,1-difluoro-2-hydroxyethyl)piperidin-1-yl)-2-hydroxyethan-1-one], the IC50 in test [1] and in test [2] was 0.0001 to 10 µM throughout.
On to `CC1(C)C(C(=O)N2CCC(C(F)(F)[C@H](O)c3c4c(cc5cn[nH]c35)CC4)CC2)C1(C)C` [Compound P-0616, (R)-(4-(2-(5,6-dihydro-1H-cyclobuta[f]indazol-7-yl)-1,1-difluoro-2-hydroxyethyl)piperidin-1-yl)(2,2,3,3-tetramethylcyclopropyl) methanone], for which the values for the IC50 in test [1] and in test [2] were 10 to 100 µM and 0.0001 to 10 µM, respectively.
For `O=C(CC1CCOCC1)N1CCC(C(F)(F)[C@H](O)c2c3c(cc4cn[nH]c24)CC3)CC1` [Compound P-0617, (R)-1-(4-(2-(5,6-dihydro-1H-cyclobuta[f]indazol-7-yl)-1,1-difluoro-2-hydroxyethyl)piperidin-1-yl)-2-(tetrahydro-2H-pyran-4-yl)ethan-1-one], in that order: 0.0001 to 10 µM and 0.0001 to 10 µM.
With `O=C(C1CCOCC1)N1CCC(C(F)(F)[C@H](O)c2c3c(cc4cn[nH]c24)CC3)CC1` [Compound P-0618, (R)-(4-(2-(5,6-dihydro-1H-cyclobuta[f]indazol-7-yl)-1,1-difluoro-2-hydroxyethyl)piperidin-1-yl)(tetrahydro-2H-pyran-4-yl)methanone], the IC50 in test [1] and in test [2] was 0.0001 to 10 µM throughout.
`O=C(c1cccnc1)N1CCC(C(F)(F)[C@H](O)c2c3c(cc4cn[nH]c24)CC3)CC1` [Compound P-0619, (R)-(4-(2-(5,6-dihydro-1H-cyclobuta[f]indazol-7-yl)-1,1-difluoro-2-hydroxyethyl)piperidin-1-yl) (pyridin-3-yl)methanone]: the 50% inhibitory concentration (IC50) in test [1] and in test [2] was 0.0001 to 10 µM each time.
Take `O=C(c1ccc(C(F)(F)F)nc1)N1CCC(C(F)(F)[C@H](O)c2c3c(cc4cn[nH]c24)CC3)CC1` [Compound P-0620, (R)-(4-(2-(5,6-dihydro-1H-cyclobuta[f]indazol-7-yl)-1,1-difluoro-2-hydroxyethyl)piperidin-1-yl)(6-(trifluoromethyl)pyridin-3-yl)methanone]: the IC50 in test [1] and in test [2] was 0.0001 to 10 µM throughout.
Regarding `O=C(c1ccc(Cl)cn1)N1CCC(C(F)(F)[C@H](O)c2c3c(cc4cn[nH]c24)CC3)CC1` [Compound P-0621, (R)-(5-chloropyridin-2-yl)(4-(2-(5,6-dihydro-1H-cyclobuta[f]indazol-7-yl)-1,1-difluoro-hydroxyethyl)piperidin-1-yl) methanone], the IC50 in test [1] and in test [2] was 0.0001 to 10 µM in each case.
Turning to `O=C(CN1CCOCC1)N1CCC(C(F)(F)[C@H](O)c2c3c(cc4cn[nH]c24)CC3)CC1` [Compound P-0622, (R)-1-(4-(2-(5,6-dihydro-1H-cyclobuta[f]indazol-7-yl)-1,1-difluoro-2-hydroxyethyl)piperidin-1-yl)-2-morpholinoethan-1-one], the IC50 in test [1] and in test [2] was 0.0001 to 10 µM each time.
Turning to `O=C(CN1CCS(=O)(=O)CC1)N1CCC(C(F)(F)[C@H](O)c2c3c(cc4cn[nH]c24)CC3)CC1` [Compound P-0623, (R)-1-(4-(2-(5,6-dihydro-1H-cyclobuta[f]indazol-7-yl)-1,1-difluoro-2-hydroxyethyl)piperidin-1-yl)-2-(1,1-dioxidothiomorpholino) ethan-1-one], the 50% inhibitory concentration (IC50) in test [1] and in test [2] was 0.0001 to 10 µM in each case.
For the compound `O=C(CC1CCS(=O)(=O)CC1)N1CCC(C(F)(F)[C@H](O)c2c3c(cc4cn[nH]c24)CC3)CC1` [Compound P-0624, (R)-1-(4-(2-(5,6-dihydro-1H-cyclobuta[f]indazol-7-yl)-1,1-difluoro-2-hydroxyethyl)piperidin-1-yl)-2-(1,1-dioxidotetrahydro-2H-thiopyran-4-yl)ethan-1-one], the IC50 in test [1] and in test [2] was 0.0001 to 10 µM each time.
Take `O=C(Cc1ccc(F)c(Cl)c1)N1CCC(C(F)(F)[C@H](O)c2c3c(cc4cn[nH]c24)CC3)CC1` [Compound P-0625, (R)-2-(3-chloro-4-fluorophenyl)-1-(4-(2-(5,6-dihydro-1H-cyclobuta[f]indazol 7-yl)-1,1-difluoro-2-hydroxyethyl)piperidin-1-yl) ethan-1-one]: the IC50 in test [1] and in test [2] was 0.0001 to 10 µM in each case.
As for `O=C(Cc1ccc(Cl)c(F)c1)N1CCC(C(F)(F)[C@H](O)c2c3c(cc4cn[nH]c24)CC3)CC1` [Compound P-0626, (R)-2-(4-chloro-3-fluorophenyl)-1-(4-(2-(5,6-dihydro-1H-cyclobuta[f]indazol-7-yl)-1,1-difluoro-2-hydroxyethyl)piperidin-1-yl) ethan-1-one], the IC50 in test [1] and in test [2] was 0.0001 to 10 µM in each case.
For the compound `CCNC(=O)N1CCC(C(F)(F)[C@H](O)c2c3c(cc4cn[nH]c24)CC3)CC1` [Compound P-0627, (R)-4-(2-(5,6-dihydro-1H-cyclobuta[f]indazol-7-yl)-1,1-difluoro-2-hydroxyethyl)-N-ethylpiperidine-1-carboxamide], the IC50 in test [1] and in test [2] was 0.0001 to 10 µM in each case.
Take `O=C(NC1CC1)N1CCC(C(F)(F)[C@H](O)c2c3c(cc4cn[nH]c24)CC3)CC1` [Compound P-0628, (R)-N-cyclopropyl-4-(2-(5,6-dihydro-1H-cyclobuta[f]indazol-7-yl)-1,1-difluoro-2-hydroxyethyl) piperidine-1-carboxamide]: the IC50 in test [1] and in test [2] was 0.0001 to 10 µM each time.
As for `O=C(NC1CCC1)N1CCC(C(F)(F)[C@H](O)c2c3c(cc4cn[nH]c24)CC3)CC1` [Compound P-0629, (R)-N-cyclobutyl-4-(2-(5,6-dihydro-1H-cyclobuta[f]indazol-7-yl)-1,1-difluoro-2-hydroxyethyl) piperidine-1-carboxamide], the IC50 in test [1] and in test [2] was 0.0001 to 10 µM each time.
For `COCCNC(=O)N1CCC(C(F)(F)[C@H](O)c2c3c(cc4cn[nH]c24)CC3)CC1` [Compound P-0630, (R)-4-(2-(5,6-dihydro-1H-cyclobuta[f]indazol-7-yl)-1,1-difluoro-2-hydroxyethyl)-N-(2-methoxyethyl) piperidine-1-carboxamide], the 50% inhibitory concentration (IC50) in test [1] and in test [2] was 0.0001 to 10 µM in each case.

These data come from patent US10508085B2, “Compounds and methods for IDO and TDO modulation, and indications therefor” (Plexxikon Inc., priority 2016, dated 2019).
